Measurements from US8952030B2, “Morphinan derivative” (priority 2011, dated 2015).
Where two headings read alike, the source gives them in different places.

Key:
opioid μ receptor = target: T1, opioid μ receptor (Homo sapiens, UniProt P35372); assay: Opioid receptor functional test (Lance Ultra cAMP Kit), μ receptor agonist activity; assay type: cell-based; details: hydrochloride was used; for Emax at 10 µM: maximum concentration (10 μM), reaction did not reach the maximum, EC50 N.C., relative to DAMGO, read-out: μ Receptor responce rate at the maximum concentration (reference value); for EC50: CHO cells expressing μ opioid receptor, 10 μM forskolin, cAMP; for Emax: maximum response relative to DAMGO taken as 100%, read-out: μ Receptor Emax
T1 construct: expressed in transfected cells; host or cells: CHO cells
T1 sequence (P35372 whole entry): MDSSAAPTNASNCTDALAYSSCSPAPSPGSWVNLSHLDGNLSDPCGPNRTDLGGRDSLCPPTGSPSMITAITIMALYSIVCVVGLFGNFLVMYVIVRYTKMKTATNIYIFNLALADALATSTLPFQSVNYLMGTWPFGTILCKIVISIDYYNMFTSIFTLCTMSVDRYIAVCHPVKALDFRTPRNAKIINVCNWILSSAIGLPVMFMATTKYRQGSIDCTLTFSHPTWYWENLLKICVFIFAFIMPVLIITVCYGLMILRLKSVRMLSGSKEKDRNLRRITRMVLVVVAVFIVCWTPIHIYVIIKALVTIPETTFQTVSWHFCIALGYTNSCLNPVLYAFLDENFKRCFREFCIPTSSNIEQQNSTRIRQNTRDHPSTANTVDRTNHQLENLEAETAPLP
Experimental: (§1) Functional activities of the compounds of the present invention for the μ, […], and κ opioid receptors were investigated.
(§2) The test was performed according to a prescribed method by using Lance Ultra cAMP Kit (Perkin-Elmer). The agonist activities were evaluated as follows. The CHO cells expressing each opioid receptor (μ, δ, or κ) and a test compound were reacted in an assay buffer (1×HBSS, […], pH 7.4, […] IBMX (isobutylmethylxanthine), 7.5% BSA) for 30 minutes in the presence of 10 μM forskolin. Then, the cAMP detection reagent included in the kit was added, and after 1 hour, time-resolved fluorescence measurements were performed by using the EnVision plate reader (Perkin-Elmer). A dose-responce curve of the test compound was obtained from fluorescence values measured at 665 nm, and EC50 value and Emax value were calculated. The Emax value was calculated as a ratio of the maximum responce of the test compound with respect to the maximum responce of each control agent (SNC80 for δ, DAMGO for μ, U-69593 for κ) taken as 100%.
(§3) 1): Hydrochloride was used.

ICR male mice = assay: Analgesic activity (acetic acid writhing method); assay type: in vivo; details: Mus musculus, sc; 3 mg/kg subcutaneous, 0.6% acetic acid i.p., writhing inhibition rate vs solvent group; hydrochloride was used; read-out: Inhibitory activities against writhing
Experimental: ICR male mice were used as groups each consisting of eight mice. Twenty minutes after the subcutaneous administration of a test compound (3 mg/kg), a 0.6% aqueous solution of acetic acid was intraperitoneally administered (0.1 mL/10 g body weight), and from the point 5 minutes after the administration, number of writhing observed over 20 minutes was counted. The analgesic activity was evaluated on the basis of the writhing inhibition rate (% inhibition) of the test compound administration group with respect to the writhing number of the solvent administration group.
1): Hydrochloride was used. 2): The evaluation results of the inhibitory activities against writhing were classified on the basis of the inhibition rate as follows. ≧90%, +++; 70≦%<90, ++; 50≦%<70, +

opioid δ receptor = target: T2, opioid δ receptor (Homo sapiens, UniProt P41143); assay: Opioid receptor functional test (Lance Ultra cAMP Kit), δ receptor agonist activity; assay type: cell-based; details: for Emax: read-out: δ Receptor Emax
T2 construct: expressed in transfected cells; host or cells: CHO cells
T2 sequence (P41143 whole entry): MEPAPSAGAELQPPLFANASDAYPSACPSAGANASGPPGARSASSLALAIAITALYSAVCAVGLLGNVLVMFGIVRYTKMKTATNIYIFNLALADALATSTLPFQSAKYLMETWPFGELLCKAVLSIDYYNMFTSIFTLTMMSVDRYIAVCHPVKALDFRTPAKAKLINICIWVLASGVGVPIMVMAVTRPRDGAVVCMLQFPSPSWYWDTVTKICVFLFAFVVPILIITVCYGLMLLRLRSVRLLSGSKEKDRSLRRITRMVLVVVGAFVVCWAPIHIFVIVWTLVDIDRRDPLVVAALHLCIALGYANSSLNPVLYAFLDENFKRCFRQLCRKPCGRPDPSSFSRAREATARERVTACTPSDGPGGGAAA
Experimental: as §1, §2, §3

opioid κ receptor = target: T3, opioid κ receptor (Homo sapiens, UniProt P41145); assay: Opioid receptor functional test (Lance Ultra cAMP Kit), κ receptor agonist activity; assay type: cell-based; details: hydrochloride was used; for Emax at 10 µM: maximum concentration (10 μM), reaction did not reach the maximum, EC50 N.C., relative to U-69593, read-out: κ Receptor responce rate at the maximum concentration (reference value); for EC50: CHO cells expressing κ opioid receptor, 10 μM forskolin, cAMP, read-out: κ Receptor EC50 value; for Emax: maximum response relative to U-69593 taken as 100%, read-out: κ Receptor Emax
T3 construct: expressed in transfected cells; host or cells: CHO cells
T3 sequence (P41145 whole entry): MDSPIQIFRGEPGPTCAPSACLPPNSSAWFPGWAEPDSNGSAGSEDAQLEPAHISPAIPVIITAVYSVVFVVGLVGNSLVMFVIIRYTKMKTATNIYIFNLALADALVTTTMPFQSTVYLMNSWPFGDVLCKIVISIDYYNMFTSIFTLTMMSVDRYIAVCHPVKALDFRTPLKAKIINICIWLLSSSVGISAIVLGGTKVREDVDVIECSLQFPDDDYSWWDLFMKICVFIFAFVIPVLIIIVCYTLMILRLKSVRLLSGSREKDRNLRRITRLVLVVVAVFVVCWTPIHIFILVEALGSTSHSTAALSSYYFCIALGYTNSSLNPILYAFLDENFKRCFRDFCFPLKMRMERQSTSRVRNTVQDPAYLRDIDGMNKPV
Experimental: as §1, §2, §3

[1] = CHO cells expressing δ opioid receptor, 10 μM forskolin, cAMP, hydrochloride was used, read-out: δ Receptor EC50 value
[2] = maximum response relative to SNC80 taken as 100%, hydrochloride was used

Row | Compound | Emax at 10 µM (opioid μ receptor) [%] | inhibition in vivo at 3 mg/kg (ICR male mice) [%] | EC50 (opioid δ receptor) [nM] | Emax (opioid δ receptor) [%] | Emax at 10 µM (opioid κ receptor) [%] | EC50 (opioid δ receptor; [1]) [nM] | Emax (opioid δ receptor; [2]) [%] | EC50 (opioid κ receptor) [nM] | Emax (opioid κ receptor) [%] | EC50 (opioid μ receptor) [nM] | Emax (opioid μ receptor) [%]
1 | O=C(c1ccccc1)N1C[C@H]2C[C@@]34CC[C@@H]1[C@@H]2[C@@]31CCN(CC2CC2)[C@@H]4Cc2ccc(O)cc21 [Compound 78, [(1S,3aR,5aS,6R,11bR,11cS)-14-(cyclopropylmethyl)-10-hydroxy-1,2,3a,4,5,6,7,11c-octahydro-3H-6,11b-(iminoethano)-1,5a-methanonaphtho[1,2-e]indol-3-yl](phenyl)methanone] | 4.7 | 50 to 70 | < 1 | 83 | 5.5 | – | – | – | – | – | –
2 | O=C(c1cccc(Cl)c1)N1C[C@H]2C[C@@]34CC[C@@H]1[C@@H]2[C@@]31CCN(CC2CC2)[C@@H]4Cc2ccc(O)cc21 [Compound 79, (3-chlorophenyl)[(1S,3aR,5aS,6R,11bR,11cS)-14-(cyclopropylmethyl)-10-hydroxy-1,2,3a,4,5,6,7,11c-octahydro-3H-6,11b-(iminoethano)-1,5a-methanonaphtho[1,2-e]indol-3-yl]methanone] | 8.8 | 70 to 90 | – | – | 9.6 | < 1 | 75 | – | – | – | –
3 | CC(C)NC(=O)N1C[C@H]2CC34CCC1C2C31CCN(CC2CC2)C4Cc2ccc(O)cc21 (stereo partly shown) [Compound 159] | 2.8 | 70 to 90 | – | – | – | < 1 | 76 | < 1 | 37 | – | –
4 | Cc1cc(C)nc(N2C[C@H]3C[C@@]45CCC2C3[C@@]42CCN(CC3CC3)[C@@H]5Cc3ccc(O)cc32)n1 (stereo partly drawn) [Compound 223, (1S,5aS,6R,11bR)-14-(cyclopropylmethyl)-3-(4,6-dimethylpyrimidin-2-yl)-2,3,3a,4,5,6,7,11c-octahydro-1H-6,11b-(iminoethano)-1,5a-methanonaphtho[1,2-e]indol-10-ol] | – | ≥ 90 | – | – | – | – | – | – | – | – | –
5 | Oc1ccc2c(c1)C13CCN(CC4CC4)C(C2)C12CCC1C3[C@@H](CN1c1cc(F)ccn1)C2 (stereo partly shown) [Compound 239] | – | ≥ 90 | – | – | – | – | – | – | – | – | –
6 | Oc1ccc2c(c1)C13CCN(CC4CC4)C(C2)C12CCC1C3[C@@H](CN1c1ccc3ccccc3n1)C2 (stereo partly shown) [Compound 243] | – | 70 to 90 | – | – | – | – | – | – | – | – | –
7 | Oc1ccc2c(c1)C13CCN(CC4CC4)C(C2)C12CCC1C3[C@@H](CN1c1cnccn1)C2 (stereo partly shown) [Compound 257] | – | 70 to 90 | – | – | – | – | – | – | – | – | –
8 | Cc1cc(C)nc(N2C[C@H]3C[C@@]45CCC2C3[C@@]42CCN(CC3CC3)[C@@H]5Cc3cccc(O)c32)n1 (stereo partly drawn) [Compound 293, (1S,5aS,6R,11bS)-14-(cyclopropylmethyl)-3-(4,6-dimethylpyrimidin-2-yl)-2,3,3a,4,5,6,7,11c-octahydro-1H-6,11b-(iminoethano)-1,5a-methanonaphtho[1,2-e]indol-11-ol] | – | – | – | – | – | < 10 | 91 | > 50 | 51 | > 50 | 17
9 | O=C(c1ccccc1)N1C[C@H]2C[C@@]34CCC1C2[C@@]31CCN(CC2CC2)[C@@H]4Cc2ccccc21 (stereo partly drawn) [Compound 298, [(1S,5aS,6R,11bR)-14-(Cyclopropylmethyl)-4,5,6,7-tetrahydro-1H-6,11b-(iminoethano)-1,5a-methanonaphtho[1,2-e]indol-3(2H,3aH,11cH)-yl](phenyl)methanone] | – | ≥ 90 | – | – | – | < 10 | 102 | > 100 | 32 | > 50 | 16
10 | Cc1cc(C)nc(N2C[C@H]3CC45CCC2C3C42CCN(CC3CC3)C5Cc3ccccc32)n1 (stereo partly shown) [Compound 300] | – | – | – | – | – | < 50 | 105 | > 500 | 39 | > 100 | 26
11 | NC(=O)c1ccc2c(c1)[C@]13CCN(CC4CC4)[C@H](C2)[C@]12CCC1C3[C@@H](CN1C(=O)c1ccccc1)O2 (stereo partly drawn) [Compound 306, (1S,5aS,6R,11bR)-3-benzoyl-14-(cyclopropylmethyl)-2,3,3a,4,5,6,7,11c-octahydro-1H-6,11b-(iminoethano)-1,5a-epoxynaphtho[1,2-e]indole-10-carboxamide] | 2.8 | – | – | – | 9.5 | < 10 | 84 | – | – | – | –
12 | Nc1ccc2c(c1)[C@]13CCN(CC4CC4)[C@H](C2)[C@]12CCC1C3[C@@H](CN1C(=O)c1ccccc1)O2 (stereo partly drawn) [Compound 308, [(1S,5aS,6R,11bR)-10-Amino-14-(cyclopropylmethyl)-4,5,6,7-tetrahydro-1H-6,11b-(iminoethano)-1,5a-epoxynaphtho[1,2-e]indol-3(2H,3aH,11cH)-yl](phenyl)methanone] | 2.5 | – | – | – | – | < 10 | 94 | > 100 | 38 | – | –
13 | COc1cc2c(cc1[N+](=O)[O-])C[C@H]1N(CC3CC3)CC[C@@]23C2C4CC[C@@]13C[C@@H]2CN4c1nc(C)cc(C)n1 (stereo partly drawn) [Compound 311, (1S,5aS,6R,11bR)-14-(cyclopropylmethyl)-3-(4,6-dimethylpyrimidin-2-yl)-10-methoxy-9-nitro-2,3,3a,4,5,6,7,11c-octahydro-1H-6,11b-(iminoethano)-1,5a-methanonaphtho[1,2-e]indole] | – | – | – | – | – | < 50 | 82 | > 500 | 16 | > 100 | 18
14 | Oc1ccc2c(c1)C13C(O)CN(CC4CC4)C(C2)C12CCC1C3[C@@H](CN1Cc1ccccc1)O2 (stereo partly drawn) [Compound 329, (1S,3aR,5aS,6R,11bS,11cS,12R)-3-Benzyl-14-(cyclopropylmethyl)-1,2,3a,4,5,6,7,11c-octahydro-1H-6,11b-(iminoethano)-1,5a-epoxynaphtho[1,2-e]indole-10,12-diol] | 0.9 | – | – | – | – | < 1 | 76 | > 10 | 14 | – | –
15 | C[C@H]1[C@H]2C[C@@]34CC[C@H]([C@@H]2[C@]32CCN(CC3CC3)[C@@H]4Cc3ccc(O)cc32)N1C(=O)c1ccccc1 [Compound 334, [(1S,2S,3aR,5aS,6R,11bS,11cS)-14-(Cyclopropylmethyl)-10-hydroxy-2-methyl-1,2,3a,4,5,6,7,11c-octahydro-3H-6,11b-(iminoethano)-1,5a-methanonaphtho[1,2-e]indol-3-yl](phenyl)methanone] | 2.9 | – | – | – | – | < 1 | 87 | > 1 | 39 | – | –
